Assay [1] addresses T1, CISD2 Gene Product (NAF-1) (Homo sapiens, UniProt Q8N5K1).
T1 sequence (Q8N5K1 57-135 limits assumed): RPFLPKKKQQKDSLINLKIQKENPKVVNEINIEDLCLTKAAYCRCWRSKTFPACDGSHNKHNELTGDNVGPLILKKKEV
Kind of assay: Stability of Fe-S cluster binding of purified NEET protein (absorbance 458 nm), NAF-1. It counts as biochemical. As to the method: (§1) The modulator effect on the NEET proteins encoded by human CISD1, CISD2, and CISD3 genes by the compounds of the invention has been tested and is reported below. Particularly, the biochemical function of the NEET proteins is measured by the stability of Fe—S cluster binding of the purified NEET proteins.
(§2) The Fe—S cluster binding capacity of NEET proteins is known to be coordinated by four amino-acids in a stretch of 16 (three Cysteine and one Histidine). As the lability of the Fe—S cluster of NEET proteins is sensitive to the environment, cluster stability measurements are one of the measures of interactions of NEET proteins with small molecules and compounds. NEET protein/2Fe-2S cluster stability can be assessed by monitoring the decay in absorbance of its characteristic 458-nm peak (characteristic of the oxidized 2Fe-2S cluster) over time. Each NEET protein (mitoNEET, NAF-1 and Miner 2) was tested for its Fe—S binding in the absence or presence of a compound according to the invention (see table 3 below). […]
(§3) At pH 6, all the three NEET proteins (mitoNEET, NAF-1 and Miner 2) have a characteristic rate of loss of the bound Fe—S cluster that can be measured by the decrease of absorbance at wavelength 458 nm over time, using a spectrophotometer. […]
(§4) A reaction mix containing DMSO diluted in the Bis-Tris Buffer with or without a compound of the invention was prepared. […] The absorbance at wavelength 458 nm was taken at 5 minutes intervals at 37° C. with a spectrofluorimeter. […]
(§5) In addition to time monitoring, residual bound Fe—S cluster to NEET protein was measured at the final point of the spectrometry assay for each Test sample and compared to the Control sample data (in parenthesis table 3). This residual binding is measured by the differential percentage between the absorbance 458 nm at time zero and the absorbance 458 nm at the end of the experiment (i.e. respectively 500 or 180 minutes as described hereabove), showing the percentage of NEET protein still able to bind a Fe—S cluster. […]

Assay [2] concerns the target T2, CISD3 Gene Product (Miner2) (Homo sapiens, UniProt P0C7P0).
T2 sequence (P0C7P0 15-127): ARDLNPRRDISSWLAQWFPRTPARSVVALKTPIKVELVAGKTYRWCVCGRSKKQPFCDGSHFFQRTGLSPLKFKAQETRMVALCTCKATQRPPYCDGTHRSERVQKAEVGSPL
Kind of assay: Stability of Fe-S cluster binding of purified NEET protein (absorbance 458 nm), Miner2. It counts as biochemical. As to the method:
as §1, §2, §3, §4, §5

The next assay deals with diabetic mice model. Nature of the assay: HbA1c in diabetic mice model (db/db). Type of assay: in vivo. Conditions: PO 7 or 20 mg/kg BID or 40 mg/kg QD, 28 days of dosing, FIG. 1. As to the method: Compound #16 has been tested on a diabetic mice model. […] Therefore, this compound can be useful for treating diabetes.
Male db/db (BKS.Cg-m 1/1 Leprdb/J) mice aged 6 weeks at the time of arrival were obtained from Janvier (France) and acclimatized to their new environment. Animals were housed in groups of 2 in a light, temperature and humidity-controlled room (a 12-hour light/dark cycle, with lights off at 4 PM; 23+/−1° C.; 50% relative humidity). All animals had free access to standard Purina 5008 chow (LabDiet) and domestic-quality tap water.
The study was initiated in mice aged 8 weeks. Three days before first dosing, a blood sample was collected for determination of baseline blood glucose and hemoglobin A1c (HbA1c) levels. Based on these baseline HbA1c and fed blood glucose levels, mice were stratified into treatment groups (n=10) receiving vehicle (CMC (1.5% W/V) Sigma (ref.C9481), Tween 80 (0.25% V/V) Sigma (ref.59924) in water) or orally administered Compound #16 as follows: • 7 mg/kg, PO BID (twice a day) • 20 mg/kg, PO BID (twice a day) • 40 mg/kg PO QD (Once a day)
Throughout the experimental period, body weight and food and water intake were measured daily in the morning.
Animals were terminated after a total of 28 days of dosing. […]

For `O=C(Nc1scc(C2CCc3ccccc3C2)c1C(=O)O)c1ccccc1` (stereo not shown) [#16], the “Time (in minutes) to achieve 50% loss of bound cluster (Absorbance 458 nm)” value is listed as 35 (310) minutes in assay [1] (NAF-1 20 μM, compound 60 μM, pH 6, 37° C., vehicle control 310) and 35 (60) minutes in assay [2] (Miner2 20 μM, compound 60 μM, pH 6, 37° C., vehicle control 60). For the same compound, the “Residual cluster bound at end of experiment (Percentage Absorbance 458 nm at time zero)” value is given as 4% (3%) in assay [1] (NAF-1, end of experiment 500 minutes, compound 60 μM, pH 6, vehicle control 3%) and 11% (11%) in assay [2] (CISD3 Gene Product, end of experiment 180 minutes, compound 60 μM, pH 6, vehicle control 11%). In addition, the “Stabiliser or destabiliser of NEET protein/Fe-S cluster binding” value in assay [1] (NAF-1, destabiliser = time to 50% cluster loss decreased by more than 25% vs control) was “destabilisers”; in assay [2] (Miner2, destabiliser = time to 50% cluster loss decreased by more than 25% vs control) it was “destabilisers”. For the same compound, the “Change of glycated hemoglobin, HbA1C” value in the assay on diabetic mice model is on record as “capable of reducing glycated hemoglobin”.

The values are drawn from patent publication US11767316B2, “Non-fused thiophene derivatives and their uses” (ENYO PHARMA, priority 2018, dated 2023).
